Assay results from US7863315B2, “2-indolinone derivatives as selective histone deacetylase inhibitors” (Shenzhen Chipscreen Biosciences, Ltd., priority 2008, dated 2011).

Key:
Format in all cases: cell-based
[1] = system: HDAC4/5 (MEF2 reporter gene); assay: HDAC subtype reporter gene assay, MEF-binding element (MEF2) luciferase in HeLa cells; conditions: Homo sapiens, M-HeLa, read-out: % of SAHA Response for HDAC4/5 at 10 μM (MEF2 reporter gene), 24 hours
Description: (§1) Measurement of inhibition of HDAC subtypes activity in cells by reporter gene assay: HDAC subtype selectivity inhibition assay of tested compounds was carried out by several reporter gene assays experiments. Briefly, HeLa cells were seeded in 96-well plates the day before transfection to give a confluence of 50-80%. Cells were transfected with one of reporter gene plasmids containing a promoter sequences or response elements upstream of a luciferase gene construct using FuGene6 transfection reagent according to the manufacturer's instructions (Roche). The promoters or response elements including p21-promoter, gdf11-promoter, MEF-binding element (MEF2), Nur77-promoter were fused upstream to the luciferase gene reporter construct. For normalizing the transfection efficiency, a GFP expression plasmid was cotransfected. Cells were allowed to express protein for 24 hours followed by addition of individual compounds or the vehicle (DMSO). 24 hours later, the cells were harvested and the luciferase assays were performed using the luciferase assay kit according to the manufacturer's instructions (Promega). To normalize the data from the luciferase assays, GFP activity from transfected cells was measured in a microtiter-plate reading fluorimeter capable of excitation at a wavelength at 485 nm and detection of emitted light at 527 nm.

[2] = system: HDAC3 (gdf11 reporter gene); assay: HDAC subtype reporter gene assay, gdf11-promoter luciferase in HeLa cells; conditions: Homo sapiens, M-HeLa, read-out: % of SAHA Response for HDAC3 at 10 μM (gdf11 reporter gene), 24 hours
Description: as §1

[3] = system: HDAC7 (Nur77 reporter gene); assay: HDAC subtype reporter gene assay, Nur77-promoter luciferase in HeLa cells; conditions: Homo sapiens, M-HeLa, read-out: % of SAHA Response for HDAC7 at 10 μM (Nur77 reporter gene), 24 hours
Description: as §1

[4] = system: HDAC class I (p21 reporter gene); assay: HDAC subtype reporter gene assay, p21-promoter luciferase in HeLa cells; conditions: Homo sapiens, M-HeLa, read-out: % of SAHA Response for HDAC class I at 10 μM (p21 reporter gene), 24 hours
Description: as §1

Measured: Emax at 10 µM

O=C(CCCCCCC(=O)Nc1ccccc1)NO [SAHA, suberoylanilide hydroxamic acid, reference compound]
100%: all assays above
